Experimental data taken from patent publication US20240246960A1 (adMare Therapeutics Society, priority 2021, published 2024).
Where two headings read alike, the source gives them in different places.

Key:
[1] = target: T1, pDNA-PK ser2056 induction in HCT116 spheroids (Homo sapiens, UniProt P78527); test: Multicellular tumour spheroid + radiation, pDNA-PK inhibition, HCT116; type: cell-based; conditions: 20 Gy
T1 construct: endogenous in cells; host or cells: HCT116 multicellular tumour spheroids
Procedure, shortened: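 EC50 (μM) is concentration halving radiation-induced pDNA-PK ser2056, scored by fluorescent immunostaining of cryosections 2 h after 20 Gy. HCT116 tumour spheroids (~0.5 mm, stirred, 20% O2/5% CO2, 37 °C) exposed to serial dilutions from 10 or 5 μM to 3.5 nM starting 1 h before irradiation.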

[2] = target: T2, pDNA-PK ser2056 induction in FaDU spheroids (Homo sapiens, UniProt P78527); test: Multicellular tumour spheroid + radiation, pDNA-PK inhibition, FaDU; type: cell-based; conditions: 20 Gy
T2 construct: host or cells: FaDu
Method: (§1) Multicellular tumour spheroids determination of compound inhibition of pDNA-PK induction following radiation. Tumour spheroids were grown to approximately 0.5 mm in diameter and irradiated with 20 Gy in combination with inhibitor test compounds to determine their potency. Inhibitor concentration for 50% reduction in pDNA-PK induction (IC50) was determined via immunohistochemical staining in spheroid cryosections taken 2 hours following radiation. For cell survival endpoint 8 Gy radiation was used and 3 hours following radiation spheroids were dissociated, counted and plated for colony forming endpoint.
Spheroid+radiation pDNA-PK. Radiation: 20 Gy. Drug: serial dilution 5 or 10 μM down to 3.5 nM (11 wells). Spheroids: 3-6 spheroids per well (300-500 μm diameter). 20% O2 and 5% CO2. 96 well plate format. Endpoint: fluorescent immunostain pDNA-PK ser2056 and image on microscope. Analysis: determine EC50 concentrations that decreases pDNA-PK induction […] after irradiation.
(§2) Multicellular tumour spheroids were used to determine potency of test compounds in a 3D tissue environment using inhibition of pDNA-PK induction following radiation or cell survival as the endpoint. For the pDNA-PK endpoint HCT116 or FaDU tumour spheroids were grown to approximately 0.5 mm in diameter and irradiated with 20 Gy in combination with inhibitor test compounds to determine their potency. Experiments were carried out in 96 well plates containing 0.7 mls of MEM media containing 10% FBS and 10 mM glucose under 20% O2 & 5% CO2 at 37° C. Following dilution of compounds 1:1000 from DMSO stocks, compounds were serially diluted from 10 μM down to 3.5 nM and 5-10 spheroids added. 96 well plates were constantly stirred to avoid spheroids settling during the course of the experiment. The inhibitor concentration for 50% reduction in pDNA-PK induction (EC50) was determined via immunohistochemical staining in spheroid cryosections taken 2 hours following radiation using anti-pDNA-PK (ser 2056) and fixed immediately in formalin following sectioning. For cell survival endpoint 8 Gy radiation was used and, 3 hours following radiation, spheroids were dissociated, counted and plated for colony forming endpoint. Data presented in the table compound potency as EC50 [μM].

HCT116 spheroids = test: Spheroid + radiation colony forming cell survival assay (SF), HCT116; type: cell-based; conditions: Homo sapiens, HCT-116, 8 Gy
Method: as §1
Spheroid+radiation colony forming cell survival assay (SF). Radiation 8 Gy. Drug: serial dilution 5 μM down to 10 nM (12 wells×2 repeat). Spheroids: 5-10 spheroids per well ([…]). HCT116. 5% O2 and 5% CO2. 96 well pate format for assay. Protocol: pre incubate 1 hour with drug, irradiate 8 Gy, post incubate 3 hrs with drug, dissociate spheroids and count cells and plate for colony forming assay. Endpoint: wait 4-7 days and count colonies. Analysis: determine EC50 concentration that increase cell kill by 50% over radiation alone.
as §2

DNA-PK = target: T3, DNA-PK (Homo sapiens, UniProt P78527); test: DNA-PK Assay for Biochemical Enzymatic Inhibition (ADP Glo Kinase assay)
T3 construct: purchased Invitrogen PR9107A
Procedure, shortened: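 Human DNA-PK (25 ng) preincubated 15 min with compounds (ten three-fold dilutions) in HEPES pH 7.5, MgCl2, KCl, calf thymus DNA buffer, then substrate 434.4 μM and ATP 64.4 μM (final) for 60 min at room temperature. ADP-Glo luminescence; percent inhibition fitted by four-parameter regression for IC50.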

[3] = target: T4, DNA-PK phosphorylation at Serine 2056 (Homo sapiens, UniProt P78527); test: Cellular Assay for Inhibition of DNA-PK Phosphorylation at Serine 2056 (FaDu cells, neocarzinostatin, sandwich ELISA); type: cell-based; conditions: Table 1
T4 construct: host or cells: FaDu
Procedure, shortened: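 Readout was pSer2056 and total DNA-PK, measured by sandwich ELISA on protein-normalized lysates. Prior to lysis, compound was applied to FaDu cells for 1 h (0.3% DMSO), followed by 2 h of 1 μg/mL neocarzinostatin. IC50 values were fitted from log concentration versus % inhibition normalized to DMSO and NCS controls.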

[4] = Microsomal stability assay, mouse liver microsomes; conditions: for microsomal CLint at 0.1 uM: male, CD-1, mouse, liver microsomes, pH 7.4, Microsomal Stability Mouse Clint, 0.1 mg/mL microsomes, 0.1 uM compound
Method: Mouse liver microsomes were obtained from a pool of 250 or more male CD-1 mice. […] Final microsomal concentration was 0.1 mg/mL and test compound concentration was 0.1 uM with a maximum of 0.01% DMSO. The test compound was pre-incubated with pooled liver microsomes in phosphate buffer (pH 7.4) for 5 min in a 37° C. shaking water bath. The reaction was initiated by adding NADPH-generating system and incubated for 0, 15, 30, 45, and 60 min. The reaction was stopped by transferring the incubation mixture to acetonitrile/methanol. Samples were then mixed and centrifuged. Supernatants were used for HPLC-MS/MS analysis. The HPLC system consisted of a binary LC pump with autosampler, a C-18 column, and a gradient. Peak areas corresponding to the test compound were recorded. The compound remaining was calculated by comparing the peak area at each time point to time zero. The half-life was calculated from the slope of the initial linear range of the logarithmic curve of compound remaining (%) vs. time, assuming first order kinetics. In addition, the intrinsic clearance (Clint) was calculated from the half-life.

FaDu cell line = test: Prodrug activation in hypoxic stirred tumour cell suspensions; type: in vitro ADME; conditions: 10 μM, 4 hours
Method: Prodrug compounds were assayed to determine their stability and rate of activation in stirred cell suspensions under 0.2 vs 5% oxygen. Compounds were diluted 1:1000 from DMSO stocks to 10 μM final concentration in tumour cell suspensions (1% by cell volume) in MEM media containing 10% FBS, 10 mM glucose & 3.7 g/L sodium bicarbonate. Cell lines assayed included A253, A549, Detroit562, FaDu, HCT116, HEP G2, HT29, SCC25, SCC9, SiHa & TC32. Compounds and cells were then incubated for 4 hours under constant mixing at 37° C. under 5% CO2 and either 0.2 or 5% O2. Following the incubation period cellular activation of the compounds was assayed via MeOH extraction and HPLC quantification.

[5] = tested on: pH2AX induction in HCT116 ATM−/− multicellular tumour spheroids; test: Prodrug radiation sensitization in multicellular tumour spheroids (pH2AX induction following radiation); type: cell-based; conditions: Homo sapiens, HCT-116, 20 Gy
Method: Prodrug compounds were assayed to determine their potency in 3D multicellular spheroids in media maintained under 20% vs […]. Multicellular tumour spheroids were grown to approximately 0.5 mm in diameter and irradiated with 20 Gy in combination with inhibitor test compounds to determine their potency using HCT116 and FaDu cell lines. Experiments were carried out in 96 well plates containing 0.7 mls of MEM media containing 10% FBS and 10 mM glucose under […] at 37° C. Following dilution of compounds 1:1000 from DMSO stocks, compounds were serially diluted from 10 μM down to 3.5 nM and 5-10 spheroids added. 96 well plates were constantly stirred to avoid spheroids settling during the course of the experiment. Endpoints were pDNA-PK (ser 2056) or pH2AX (ser 139) status in spheroid cryosections taken 1 or 2 hours following radiation and fixed immediately in formalin. Using tumour cell lines deficient in ATM improved the assay signal to noise and gH2AX readout. Using this assay prodrug activity could be compared in the more oxygenated outer spheroid layers versus less oxygenated hypoxic central cell layers.

[6] = Example 7, spheroid, cell line HCT115 [sic], 20% O2, read-out: EC50 (pDNA-PK inhibition, immunohistochemical endpoint)
[7] = Example 8, spheroid, read-out: Cell line: HCT116 Immunohistochemical endpoint pDNA-PK inhibition EC50
[8] = Example 9 Study 2, 20% O2, read-out: Spheroid Cell line: HCT116 Immunohistochemical endpoint pDNA-PK inhibition EC50
[9] = Example 8, spheroid, read-out: Cell line: FaDU Immunohistochemical endpoint pDNA-PK inhibition EC50
[10] = Example 9 Study 2, 20% O2, read-out: Spheroid Cell line: FaDU Immunohistochemical endpoint pDNA-PK inhibition EC50

EC50 [1, 6] [nM] | EC50 [1, 7] [nM] | EC50 [1, 8] [nM] | EC50 [2, 9] [nM] | EC50 [2, 10] [nM] | IC50 (DNA-PK; Table 1) [nM] | IC50 [3] [nM] | Microsomal Stability (mouse) % rem. 60 min [4] | microsomal CLint at 0.1 uM [4] [µL/min/mg] | IC50 (DNA-PK; Table 2) [nM] | Fraction of prodrug converted to active form, Hypoxic 0.2% O2 (FaDu cell line; 0.2% O2) | Fraction of prodrug converted to active form, Oxic 5% O2 (FaDu cell line; 5% O2) | SMILES | EC50 (HCT116 spheroids; Example 8, spheroid, read-out: Cell line: HCT116 Colony forming endpoint Surviving Fraction EC50) [nM] | EC50 (HCT116 spheroids; Example 9 Study 2, read-out: Spheroid Cell line: HCT116 Colony forming endpoint Surviving Fraction EC50) [nM] | EC50 ([5]; 5% O2, inner layers, read-out: Prodrug 5% O2 Inner layers EC50) [nM] | EC50 ([5]; 5% O2, outer layers, read-out: Prodrug 5% O2 Outer layers EC50) [nM] | EC50 ([5]; 20% O2, outer layers, read-out: Prodrug 20% O2 Outer layers EC50) [nM]
1000 to 10000 | 1000 to 10000 | 1000 to 10000 | 500 to 1000 | 500 to 1000 | < 0.5 | < 100 | E (% remaining = 0-25%) | > 116 | – | – | – | O=C(N[C@H]1CC[C@@H](Oc2nc(N3CCOCC3)cc3ncccc23)CC1)c1ccc(F)cc1 [Compound 111, 4-Fluoro-N-((1s,4s)-4-((7-morpholino-1,6-naphthyridin-5-yl)oxy)cyclohexyl)benzamide] | – | – | – | – | –
10 to 500 | 10 to 500 | 10 to 500 | 10 to 500 | 10 to 500 | < 0.5 | 100 to 1000 | E (% remaining = 0-25%) | > 116 | – | – | – | COc1ccc(C(=O)N[C@H]2CC[C@@H](Oc3nc(N4CCOCC4)cc4ncccc34)CC2)cc1 [Compound 112, 4-Methoxy-N-((1s,4s)-4-((7-morpholino-1,6-naphthyridin-5-yl)oxy)cyclohexyl)benzamide] | – | – | – | – | –
1000 to 10000 | 1000 to 10000 | 1000 to 10000 | 1000 to 10000 | 1000 to 10000 | 0.5 to 1 | 100 to 1000 | E (% remaining = 0-25%) | > 116 | – | – | – | Nc1cnc2cc(N3CCOCC3)nc(O[C@H]3CC[C@@H](n4ccnc4)CC3)c2c1 [Compound 160, 5-(((1s,4s)-4-(1H-imidazol-1-yl)cyclohexyl)oxy)-7-morpholino-1,6-naphthyridin-3-amine] | – | – | – | – | –

Continued, compound first:

SMILES | EC50 [1, 6] [nM] | EC50 [1, 7] [nM] | EC50 [1, 8] [nM] | EC50 [2, 9] [nM] | EC50 [2, 10] [nM] | IC50 (DNA-PK; Table 1) [nM] | IC50 [3] [nM] | Microsomal Stability (mouse) % rem. 60 min [4] | microsomal CLint at 0.1 uM [4] [µL/min/mg] | IC50 (DNA-PK; Table 2) [nM] | Fraction of prodrug converted to active form, Hypoxic 0.2% O2 (FaDu cell line; 0.2% O2) | Fraction of prodrug converted to active form, Oxic 5% O2 (FaDu cell line; 5% O2) | EC50 (HCT116 spheroids; Example 8, spheroid, read-out: Cell line: HCT116 Colony forming endpoint Surviving Fraction EC50) [nM] | EC50 (HCT116 spheroids; Example 9 Study 2, read-out: Spheroid Cell line: HCT116 Colony forming endpoint Surviving Fraction EC50) [nM] | EC50 ([5]; 5% O2, inner layers, read-out: Prodrug 5% O2 Inner layers EC50) [nM] | EC50 ([5]; 5% O2, outer layers, read-out: Prodrug 5% O2 Outer layers EC50) [nM] | EC50 ([5]; 20% O2, outer layers, read-out: Prodrug 20% O2 Outer layers EC50) [nM]
Brc1cnc2cc(N3CCOCC3)nc(O[C@H]3CC[C@@H](n4ccnc4)CC3)c2c1 [Compound 10, 4-(5-(((1s,4s)-4-(1H-imidazol-1-yl)cyclohexyl)oxy)-3-bromo-1,6-naphthyridin-7-yl)morpholine] | 1000 to 10000 | 1000 to 10000 | 1000 to 10000 | 500 to 1000 | 500 to 1000 | – | – | – | – | – | – | – | 500 to 1000 | 500 to 1000 | – | – | –
Cn1c(CN(c2cnc3cc(N4CCOCC4)nc(OC4CCC(Nc5ncccn5)CC4)c3c2)S(C)(=O)=O)cnc1[N+](=O)[O-] (stereo not shown) [LFA008, N-[(3-Methyl-2-nitro-imidazol-4-yl)methyl]-N-[7-morpholino-5-[4-(pyrimidin-2-ylamino)cyclohexoxy]-1,6-naphthyridin-3-yl]methanesulfonamide] | – | – | – | – | – | – | – | – | – | 10 to 150 | B (B is 0.05 to 0.15) | D (D is 0 to 0.02) | – | – | 10 to 500 | 500 to 1000 | 1000 to 10000
